Literature values in article PMC7306898, “Concentration-Dependent Activity of Hydromethylthionine on Clinical Decline and Brain Atrophy in a Randomized Controlled Trial in Behavioral Variant Frontotemporal Dementia” (Journal of Alzheimer's Disease, 2020).
Read-outs that look alike come from different tables or passages of the source.

Columns and labels:
[1] = cited from earlier work; for Plasma Half-life, Mean: value in parentheses ref U.S. approved product labeling
[2] = design: method as in Investigator's Brochure; conditions: coadministration of reduced leuco (LMT) form with food ref Investigator's Brochure; cited from earlier work
serotonin transporter = test system: serotonin transporter; design: method as in PMID 21542830; conditions: in vitro ref 73; cited from earlier work
TDP-43 = test system: TDP-43; design: method as in PMID 19560462; conditions: cell models ref 34; read-out: EC50, inhibition of aggregation of TDP-43; cited from earlier work
mitochondrial activity = test system: mitochondrial activity; design: method as in PMID 22419586, PMID 17928358; conditions: cited from earlier work
subjects with AD = test system: subjects with AD; design: method as in TRx-014-001; conditions: cited from earlier work
[3] = test system: subjects with a clinical diagnosis within the FTLD spectrum; design: method as in Investigator's Brochure; conditions: MTC 138 mg/day MT, cited from earlier work
[4] = test system: subjects with mild or moderate AD; conditions: cited from earlier work
mice = test system: mice; design: method as in U.S. National Toxicology Program; conditions: cited from earlier work
male rats = test system: male rats; design: method as in U.S. National Toxicology Program; conditions: pancreatic islet cell adenoma and adenoma or carcinoma ref U.S. National Toxicology Program; cited from earlier work
[5] = ref U.S. approved product labeling
[6] = single dose ref U.S. approved product labeling
[7] = Biphasic ref U.S. approved product labeling

N[C@@H]1C[C@H]1c1ccccc1 (racemic) [Tr a n yl c yp r o mi n e, Tranylcypromine]
Plasma Half-life, range or single value [1, 5]: 2.5 h

Oc1ccc2c(c1)N=C(N1CCNCC1)c1cc(Cl)ccc1O2 [8-hydroxyamoxapine]
Plasma Half-life, range or single value [1, 5]: 30 h

CN(C)CCC=C1c2ccccc2CCc2ccccc21 [Amitriptyline]
Plasma Half-life, range or single value [1, 5]: 9 to 25 h

Clc1ccc2c(c1)C(N1CCNCC1)=Nc1ccccc1O2 [Amo xapine, Amoxapine]
Plasma Half-life, range or single value [1, 5]: 8 h

CC(NC(C)(C)C)C(=O)c1cccc(Cl)c1 (centres unmarked) [Bupropion]
Plasma Half-life, range or single value [1, 5]: 12 to 30 h | Plasma Half-life, Mean [1]: 21 h

O=C1CC2(CCCC2)CC(=O)N1CCCCN1CCN(c2ncccn2)CC1 [Buspirone]
Plasma Half-life [1, 6]: 2 to 3 h

CN(C)CCCC1(c2ccc(F)cc2)OCc2cc(C#N)ccc21 (centres unmarked) [Citalopram]
Plasma Half-life, range or single value [1, 5]: 35 h | increase in half-life reported in elderly [1, 5]: 30-50%

CN(C)[C@@H](CCOc1cccc2ccccc12)c1ccccc1 [Dapoxetene]
Plasma Half-life, initial [1, 7]: 1.5 h | Plasma Half-life, terminal [1, 7]: 20 h

CNCCC=C1c2ccccc2COc2ccccc21 [Des meth yldoxepin, Desmethyldoxepin]
Plasma Half-life, range or single value [1, 5]: 28 to 52 h

CNCCCN1c2ccccc2CCc2ccccc21 [Desipramine]
Plasma Half-life, range or single value [1, 5]: 12 to 27 h

CNCCCN1c2ccccc2CCc2ccc(Cl)cc21 [Desmeth ylclo mipramine, Desmethylclomipramine]
Plasma Half-life, range or single value [1, 5]: 54 to 77 h | Plasma Half-life, Mean [1]: 69 h

CN(C)CC(c1ccc(O)cc1)C1(O)CCCCC1 (centres unmarked) [Desven la fa xin e, Desvenlafaxine]
Plasma Half-life, range or single value [1, 5]: 11 h

CN(C)CC/C=C1\c2ccccc2CSc2ccccc21 [Dosulepin]
Plasma Half-life for “its metabolites” [1, 5]: 23 to 46 h | Plasma Half-life, range or single value [1, 5]: 19 to 33 h

CN(C)CCC=C1c2ccccc2COc2ccccc21 [Doxepin]
Plasma Half-life, range or single value [1, 5]: 15.3 h

CC(NC(C)(C)C)C(O)c1cccc(Cl)c1 (centres unmarked) [Erythrohydrobupropion]
Plasma Half-life, range or single value [1, 5]: 23 to 43 h | Plasma Half-life, Mean [1]: 33 h

CN(C)CCC[C@@]1(c2ccc(F)cc2)OCc2cc(C#N)ccc21 [Escitalopram]
Plasma Half-life, range or single value [1, 5]: 27 to 32 h | increase in half-life reported in elderly [1, 5]: 50%

CNCCC(Oc1ccc(C(F)(F)F)cc1)c1ccccc1 (centres unmarked) [Fluoxetine]
Plasma Half-life ([1]; Acute ref U.S. approved product labeling): 24 to 72 h | Plasma Half-life ([1]; Chronic ref U.S. approved product labeling): 96 to 140 h

COCCCC/C(=N\OCCN)c1ccc(C(F)(F)F)cc1 [Fluvoxamine]
Plasma Half-life, range or single value [1, 5]: 15.6 h

C[C@H]1NC(C)(C)CO[C@]1(O)c1cccc(Cl)c1 [Hydroxybupropion]
Plasma Half-life, range or single value [1, 5]: 15 to 25 h | Plasma Half-life, Mean [1]: 20 h

CN(C)c1ccc2c(c1)Sc1cc(N(C)C)ccc1N2 [LMT, leuco-methylthioninium]
lowering of peak concentrations with food [2]: 8%

CN(C)c1ccc2nc3ccc(=[N+](C)C)cc-3sc2c1 [MT, methylthioninium]
IC50 (serotonin transporter): 1200 nM | EC50 (TDP-43): 50 nM | concentrations at which mitochondrial activity is enhanced (mitochondrial activity): 10 to 100 nM

CN(C)c1ccc2nc3ccc(=[N+](C)C)cc-3sc2c1 [MTC, methylthioninium chloride]
methemoglobin, highest value observed (subjects with AD; Phase 2 study ref TRx-014-001): 8% | Diarrhea and related adverse events (subjects with AD; highest dose, 228 mg MT/day ref TRx-014-001): 48% | discontinuation due to urinary adverse events (subjects with AD; including urinary discoloration and staining ref TRx-014-001): 6% | discontinuation due to diarrhea and related adverse events, overall (subjects with AD; ref TRx-014-001): 16% | mean methemoglobin levels (subjects with AD; ref TRx-014-001): below 3.5% | subjects discontinued due to vomiting (subjects with AD; ref TRx-014-001): 3% | methemoglobin, mean overall (subjects with AD; those treated with MTC ref TRx-014-001): 0.8% | MMSE scores, mean above Baseline ([3]; 12 months ref Investigator's Brochure): 1.6 units | ACE-R scores improved by a mean (mean ± SEM) ([3]; 12 months, 7 subjects, LOCF ref Investigator's Brochure): 4.5 ± 2.4 units | clinically effective dose available ([4]; 100 mg MTC capsules twice or three times daily, nominal doses 152-228 mg/day ref Baddeley et al., 2015, Wischik et al.): 72 to 109 mg/day | minimum effective dose in AD ([4]; placebo-controlled dose-finding Phase II trial ref 47): 138 mg/day | carcinogenic activity (mice; female mice, malignant lymphoma ref U.S. National Toxicology Program): equi vocal eviden ce of | carcinogenic activity (mice; male mice, carcinoma and adenoma or carcinoma in the small intestine ref U.S. National Toxicology Program): some evidenc e of car cinogeni c activit y | carcinogenic activity (male rats): som e evi dence of carcino genic

CNCCCC12CCC(c3ccccc31)c1ccccc12 [Maprotiline]
Plasma Half-life, range or single value [1, 5]: 51 h

CCN(CC)C(=O)C1(c2ccccc2)CC1CN (centres unmarked) [Milnacipran]
Plasma Half-life, range or single value [1, 5]: 6 to 8 h

O=C(NCCN1CCOCC1)c1ccc(Cl)cc1 [Moclobemide]
Plasma Half-life, range or single value [1, 5]: 1 to 2 h

N[C@H]1CC[C@@H](c2ccc(Cl)c(Cl)c2)c2ccccc21 [N-desmethyls ertraline, N-desmethylsertraline]
Plasma Half-life, range or single value [1, 5]: 62 to 104 h

CCc1nn(CCCN2CCN(c3cccc(Cl)c3)CC2)c(=O)n1CCOc1ccccc1 [Nefazodone]
Plasma Half-life, range or single value [1, 5]: 2 to 4 h

CNCCC=C1c2ccccc2COc2ccccc21 [Nordoxepin]
Plasma Half-life, range or single value [1, 5]: 31 h

NCCC(Oc1ccc(C(F)(F)F)cc1)c1ccccc1 (centres unmarked) [Norfluoxetine]
Plasma Half-life, Range [1, 5]: 96 to 384 h | Plasma Half-life, Mean [1]: 223 h

CNCCC=C1c2ccccc2CCc2ccccc21 [Nortriptyline]
Plasma Half-life, range or single value [1, 5]: 16 to 93 h

CN(C)CC(c1ccc(O)cc1)C1(O)CCCCC1 (centres unmarked) [O-desmeth ylvenlafaxine, O-desmethylvenlafaxine]
Plasma Half-life, range or single value [1, 5]: 9 to 13 h

Fc1ccc([C@@H]2CCNC[C@H]2COc2ccc3c(c2)OCO3)cc1 [P aroxetine, Paroxetine]
Plasma Half-life, range or single value [1, 5]: 21 h

CNCCCC1c2ccccc2C=Cc2ccccc21 [P rotriptyline, Protriptyline]
Plasma Half-life, range or single value [1, 5]: 55 to 198 h

NNCCc1ccccc1 [Phenelzine]
Plasma Half-life [1, 6]: 11.6 h

C#CCNC(C)Cc1ccccc1 (stereo not drawn) [R(-)-N -desmeth ylselegiline, R(-)-N-desmethylselegiline]
Plasma Half-life, range or single value [1, 5]: 18 to 25 h

CN[C@H](C)Cc1ccccc1 [R(-)-methamphetamine]
Plasma Half-life, range or single value [1, 5]: 18 to 25 h

C#CCN(C)[C@H](C)Cc1ccccc1 [Selegiline]
Plasma Half-life, range or single value [1, 5]: 10 h

CN[C@H]1CC[C@@H](c2ccc(Cl)c(Cl)c2)c2ccccc21 [Sertraline]
Plasma Half-life, range or single value [1, 5]: 26 h

C[C@H](NC(C)(C)C)[C@@H](O)c1cccc(Cl)c1 [Threohydrobupropion]
Plasma Half-life, range or single value [1, 5]: 24 to 50 h | Plasma Half-life, Mean [1]: 37 h

CC(CN(C)C)CN1c2ccccc2CCc2ccccc21 (centres unmarked) [Tr i mi p r a mi n e, Trimipramine]
Plasma Half-life, range or single value [1, 5]: 11 to 23 h

O=c1n(CCCN2CCN(c3cccc(Cl)c3)CC2)nc2ccccn12 [Trazodone]
Plasma Half-life [1, 6]: 10 h

COc1ccc(C(CN(C)C)C2(O)CCCCC2)cc1 (centres unmarked) [V enlafaxine, Venlafaxine]
Plasma Half-life, range or single value [1, 5]: 3 to 7 h

N#Cc1ccc2[nH]cc(CCCCN3CCN(c4ccc5oc(C(N)=O)cc5c4)CC3)c2c1 [V ilazod on e, Vilazodone]
Plasma Half-life, range or single value [1, 5]: 25 h

CCN(CC)C(=O)[C@]1(c2ccccc2)C[C@@H]1CN [d-milnacipran]
Plasma Half-life, range or single value [1, 5]: 8 to 10 h

CCN(CC)C(=O)[C@@]1(c2ccccc2)C[C@H]1CN [l-enatiomer]
Plasma Half-life, range or single value [1, 5]: 4 to 6 h
